Values joined by “and” are separate entries in the source; they are usually repeats but may differ in a detail not shown here. Equal values may be shown once.
Legend:
[1] = target: SfurOBP1 (Sogatella furcifera, UniProt V5T8N5); test: biochemical; assay type: binding; details: for Fluorescence competitive binding assay, fluorescence intensity: OBP1, three replicate columns
Procedure, shortened: (§1)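 K1-NPN came from titrating 2.0 µM protein (50 mM Tris-HCl, pH 7.4) with 1-NPN. Odorants at 2-20 µM then competed against 2.0 µM protein plus 2.0 µM 1-NPN for 2 min, with excitation at 337 nm and emission recorded over 390-490 nm. IC50 values were converted to Ki via Ki = IC50/(1 + [1-NPN]/K1-NPN).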

[2] = target: SfurOBP11 (Sogatella furcifera, UniProt V5T6E3); test: biochemical; assay type: binding
Chain of SfurOBP11 (V5T6E3 entry or part of it): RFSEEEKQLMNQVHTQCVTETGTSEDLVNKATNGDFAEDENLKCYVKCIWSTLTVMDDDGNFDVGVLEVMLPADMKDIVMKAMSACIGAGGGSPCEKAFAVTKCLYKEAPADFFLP
Procedure, shortened: as §1

[3] = target: SfurOBP2 (Sogatella furcifera, UniProt V5T759); test: biochemical; assay type: binding
Chain of SfurOBP2 (V5T759 entry or part of it): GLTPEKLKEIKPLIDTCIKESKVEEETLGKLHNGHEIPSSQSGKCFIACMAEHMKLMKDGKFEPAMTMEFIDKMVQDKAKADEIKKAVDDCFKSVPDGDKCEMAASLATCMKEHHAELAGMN
Procedure, shortened: as §1

[4] = target: SfurOBP3 (Sogatella furcifera, UniProt V5T818); test: biochemical; assay type: binding; details: for Fluorescence competitive binding assay, fluorescence intensity: OBP3, three replicate columns
Chain of SfurOBP3 (V5T818 entry or part of it): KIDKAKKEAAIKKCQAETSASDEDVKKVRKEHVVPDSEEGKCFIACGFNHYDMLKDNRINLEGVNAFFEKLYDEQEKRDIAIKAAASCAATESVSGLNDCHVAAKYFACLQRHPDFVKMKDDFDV
Procedure, shortened: as §1

[5] = test system: S. furcifera adults; test: Y-tube olfactometer behavioral trials; assay type: in vivo, Sogatella furcifera; details: odorant 50 µL/L vs hexane; adults
Procedure, shortened: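 Single S. furcifera adults (2 days post-emergence, starved 0.5 h) chose between odorant (100 µL of 50 µL/L on filter paper) and hexane control in a glass Y-tube, charcoal-filtered humidified air 300 mL/min per arm, 25 ± 1 °C, 50% RH. Choice scored if insect passed half an arm and stayed >1 min within 10 min; 45 insects per compound, chi-squared test.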

Chain of SfurOBP1 (V5T8N5 entry or part of it): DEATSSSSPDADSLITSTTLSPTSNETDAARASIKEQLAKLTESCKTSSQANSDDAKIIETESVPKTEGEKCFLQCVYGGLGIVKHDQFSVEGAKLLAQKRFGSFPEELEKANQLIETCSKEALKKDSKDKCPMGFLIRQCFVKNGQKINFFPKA

With C=CC(C)(O)CCC=C(C)C (stereo not drawn) [linalool] the IC50 [1] was > 20 µM, the “Fluorescence competitive binding assay, fluorescence intensity” value ([1]; ligand concentration 2 (μM)) was 6084 and 5184 and 7029 and the “Fluorescence competitive binding assay, fluorescence intensity” value ([1]; ligand concentration 4 (μM)) was 5717 and 6456 and 6034. The “Fluorescence competitive binding assay, fluorescence intensity” value ([1]; ligand concentration 6 (μM)) was 5873 and 6101 and 6679, the “Fluorescence competitive binding assay, fluorescence intensity” value ([1]; ligand concentration 8 (μM)) was 5733 and 6957 and 6693 and the “Fluorescence competitive binding assay, fluorescence intensity” value ([1]; ligand concentration 10 (μM)) was 5847 and 5923 and 6121. For the same compound, the “Fluorescence competitive binding assay, fluorescence intensity” value ([1]; ligand concentration 12 (μM)) was 6065 and 6137 and 6412, the “Fluorescence competitive binding assay, fluorescence intensity” value ([1]; ligand concentration 14 (μM)) was 7822 and 5806 and 6262 and the “Fluorescence competitive binding assay, fluorescence intensity” value ([1]; ligand concentration 16 (μM)) was 5059 and 6382 and 5339. The “Fluorescence competitive binding assay, fluorescence intensity” value ([1]; ligand concentration 18 (μM)) was 6537 and 6532 and 5815, the “Fluorescence competitive binding assay, fluorescence intensity” value ([1]; ligand concentration 20 (μM)) was 6056 and 5740 and 5464 and the IC50 [2] was > 20 µM. For the same compound, the “Fluorescence intensity, fluorescence competitive binding assay, OBP11” value (“Fluorescence intensity … OBP11” below) ([2]; ligand concentration 2, replicate 1) was 34595, the “Fluorescence intensity … OBP11” value ([2]; ligand concentration 2, replicate 2) was 35145 and the “Fluorescence intensity … OBP11” value ([2]; ligand concentration 2, replicate 3) was 35691. For the same compound, the “Fluorescence intensity … OBP11” value ([2]; ligand concentration 4, replicate 1) was 34126, the “Fluorescence intensity … OBP11” value ([2]; ligand concentration 4, replicate 2) was 38977 and the “Fluorescence intensity … OBP11” value ([2]; ligand concentration 4, replicate 3) was 36540. For the same compound, the “Fluorescence intensity … OBP11” value ([2]; ligand concentration 6, replicate 1) was 35921, the “Fluorescence intensity … OBP11” value ([2]; ligand concentration 6, replicate 2) was 34102 and the “Fluorescence intensity … OBP11” value ([2]; ligand concentration 6, replicate 3) was 34901. The “Fluorescence intensity … OBP11” value ([2]; ligand concentration 8, replicate 1) was 31879, the “Fluorescence intensity … OBP11” value ([2]; ligand concentration 8, replicate 2) was 34190 and the “Fluorescence intensity … OBP11” value ([2]; ligand concentration 8, replicate 3) was 34940. For the same compound, the “Fluorescence intensity … OBP11” value ([2]; ligand concentration 10, replicate 1) was 32152, the “Fluorescence intensity … OBP11” value ([2]; ligand concentration 10, replicate 2) was 33920 and the “Fluorescence intensity … OBP11” value ([2]; ligand concentration 10, replicate 3) was 34003. The “Fluorescence intensity … OBP11” value ([2]; ligand concentration 12, replicate 1) was 31331, the “Fluorescence intensity … OBP11” value ([2]; ligand concentration 12, replicate 2) was 31885 and the “Fluorescence intensity … OBP11” value ([2]; ligand concentration 12, replicate 3) was 32147. The “Fluorescence intensity … OBP11” value ([2]; ligand concentration 14, replicate 1) was 27789, the “Fluorescence intensity … OBP11” value ([2]; ligand concentration 14, replicate 2) was 28913 and the “Fluorescence intensity … OBP11” value ([2]; ligand concentration 14, replicate 3) was 26664. The “Fluorescence intensity … OBP11” value ([2]; ligand concentration 16, replicate 1) was 26184, the “Fluorescence intensity … OBP11” value ([2]; ligand concentration 16, replicate 2) was 25844 and the “Fluorescence intensity … OBP11” value ([2]; ligand concentration 16, replicate 3) was 25199. The “Fluorescence intensity … OBP11” value ([2]; ligand concentration 18, replicate 1) was 30237, the “Fluorescence intensity … OBP11” value ([2]; ligand concentration 18, replicate 2) was 30011 and the “Fluorescence intensity … OBP11” value ([2]; ligand concentration 18, replicate 3) was 30462. For the same compound, the “Fluorescence intensity … OBP11” value ([2]; ligand concentration 20, replicate 1) was 29291, the “Fluorescence intensity … OBP11” value ([2]; ligand concentration 20, replicate 2) was 29263 and the “Fluorescence intensity … OBP11” value ([2]; ligand concentration 20, replicate 3) was 28048. For the same compound, the IC50 [3] was > 20 µM, the “Fluorescence competitive binding assay, OBP2 (raw fluorescence reading)” value ([3]; ligand concentration 2 (unit not given), replicate column 1 of 3) was 22475 and the “Fluorescence competitive binding assay, OBP2 (raw fluorescence reading)” value ([3]; ligand concentration 2 (unit not given), replicate column 2 of 3) was 19579. The “Fluorescence competitive binding assay, OBP2 (raw fluorescence reading)” value ([3]; ligand concentration 2 (unit not given), replicate column 3 of 3) was 19869, the “Fluorescence competitive binding assay, OBP2 (raw fluorescence reading)” value ([3]; ligand concentration 4 (unit not given), replicate column 1 of 3) was 18324 and the “Fluorescence competitive binding assay, OBP2 (raw fluorescence reading)” value ([3]; ligand concentration 4 (unit not given), replicate column 2 of 3) was 21526. The “Fluorescence competitive binding assay, OBP2 (raw fluorescence reading)” value ([3]; ligand concentration 4 (unit not given), replicate column 3 of 3) was 18676, the “Fluorescence competitive binding assay, OBP2 (raw fluorescence reading)” value ([3]; ligand concentration 6 (unit not given), replicate column 1 of 3) was 20143 and the “Fluorescence competitive binding assay, OBP2 (raw fluorescence reading)” value ([3]; ligand concentration 6 (unit not given), replicate column 2 of 3) was 19481. The “Fluorescence competitive binding assay, OBP2 (raw fluorescence reading)” value ([3]; ligand concentration 6 (unit not given), replicate column 3 of 3) was 21546, the “Fluorescence competitive binding assay, OBP2 (raw fluorescence reading)” value ([3]; ligand concentration 8 (unit not given), replicate column 1 of 3) was 18566 and the “Fluorescence competitive binding assay, OBP2 (raw fluorescence reading)” value ([3]; ligand concentration 8 (unit not given), replicate column 2 of 3) was 19629. For the same compound, the “Fluorescence competitive binding assay, OBP2 (raw fluorescence reading)” value ([3]; ligand concentration 8 (unit not given), replicate column 3 of 3) was 19018, the “Fluorescence competitive binding assay, OBP2 (raw fluorescence reading)” value ([3]; ligand concentration 10 (unit not given), replicate column 1 of 3) was 17948 and the “Fluorescence competitive binding assay, OBP2 (raw fluorescence reading)” value ([3]; ligand concentration 10 (unit not given), replicate column 2 of 3) was 18880. The “Fluorescence competitive binding assay, OBP2 (raw fluorescence reading)” value ([3]; ligand concentration 10 (unit not given), replicate column 3 of 3) was 17034, the “Fluorescence competitive binding assay, OBP2 (raw fluorescence reading)” value ([3]; ligand concentration 12 (unit not given), replicate column 1 of 3) was 17194 and the “Fluorescence competitive binding assay, OBP2 (raw fluorescence reading)” value ([3]; ligand concentration 12 (unit not given), replicate column 2 of 3) was 16713. The “Fluorescence competitive binding assay, OBP2 (raw fluorescence reading)” value ([3]; ligand concentration 12 (unit not given), replicate column 3 of 3) was 16298, the “Fluorescence competitive binding assay, OBP2 (raw fluorescence reading)” value ([3]; ligand concentration 14 (unit not given), replicate column 1 of 3) was 15375 and the “Fluorescence competitive binding assay, OBP2 (raw fluorescence reading)” value ([3]; ligand concentration 14 (unit not given), replicate column 2 of 3) was 15983. For the same compound, the “Fluorescence competitive binding assay, OBP2 (raw fluorescence reading)” value ([3]; ligand concentration 14 (unit not given), replicate column 3 of 3) was 16080, the “Fluorescence competitive binding assay, OBP2 (raw fluorescence reading)” value ([3]; ligand concentration 16 (unit not given), replicate column 1 of 3) was 16976 and the “Fluorescence competitive binding assay, OBP2 (raw fluorescence reading)” value ([3]; ligand concentration 16 (unit not given), replicate column 2 of 3) was 14612. The “Fluorescence competitive binding assay, OBP2 (raw fluorescence reading)” value ([3]; ligand concentration 16 (unit not given), replicate column 3 of 3) was 14664, the “Fluorescence competitive binding assay, OBP2 (raw fluorescence reading)” value ([3]; ligand concentration 18 (unit not given), replicate column 1 of 3) was 15874 and the “Fluorescence competitive binding assay, OBP2 (raw fluorescence reading)” value ([3]; ligand concentration 18 (unit not given), replicate column 2 of 3) was 15679. The “Fluorescence competitive binding assay, OBP2 (raw fluorescence reading)” value ([3]; ligand concentration 18 (unit not given), replicate column 3 of 3) was 13833, the “Fluorescence competitive binding assay, OBP2 (raw fluorescence reading)” value ([3]; ligand concentration 20 (unit not given), replicate column 1 of 3) was 14349 and the “Fluorescence competitive binding assay, OBP2 (raw fluorescence reading)” value ([3]; ligand concentration 20 (unit not given), replicate column 2 of 3) was 13969. The “Fluorescence competitive binding assay, OBP2 (raw fluorescence reading)” value ([3]; ligand concentration 20 (unit not given), replicate column 3 of 3) was 12873, the IC50 [4] was > 20 µM and the “Fluorescence competitive binding assay, fluorescence intensity” value ([4]; ligand concentration 2) was 45666 and 44893 and 46206. The “Fluorescence competitive binding assay, fluorescence intensity” value ([4]; ligand concentration 4) was 43749 and 45410 and 42660, the “Fluorescence competitive binding assay, fluorescence intensity” value ([4]; ligand concentration 6) was 44364 and 44740 and 45115 and the “Fluorescence competitive binding assay, fluorescence intensity” value ([4]; ligand concentration 8) was 41369 and 43894 and 46339. The “Fluorescence competitive binding assay, fluorescence intensity” value ([4]; ligand concentration 10) was 41142 and 43565 and 45619, the “Fluorescence competitive binding assay, fluorescence intensity” value ([4]; ligand concentration 12) was 38618 and 37689 and 38140 and the “Fluorescence competitive binding assay, fluorescence intensity” value ([4]; ligand concentration 14) was 35045 and 37361 and 38462. The “Fluorescence competitive binding assay, fluorescence intensity” value ([4]; ligand concentration 16) was 32691 and 35765 and 36425, the “Fluorescence competitive binding assay, fluorescence intensity” value ([4]; ligand concentration 18) was 35273 and 34668 and 35335 and the “Fluorescence competitive binding assay, fluorescence intensity” value ([4]; ligand concentration 20) was 34176 and 32081 and 34822. The “number of insects choosing hexane arm” value [5] was 14, the “number of insects choosing volatilies arm” value [5] was 14 and the “number of insects failed (no choice)” value [5] was 12.

— PMC6409085, “Three odorant-binding proteins are involved in the behavioral response of Sogatella furcifera to rice plant volatiles” (PeerJ, 2019)
